In ChEMBL document CHEMBL1141629, “Kinase-likeness and kinase-privileged fragments: toward virtual polypharmacology” (J Med Chem, 2008) one finds inhibition and IC50 data, which are given here for ten compounds.

SMILES strings stand for the structures.

Ribosomal protein S6 kinase beta-1 (Homo sapiens), sequence (P23443 whole entry, looked up): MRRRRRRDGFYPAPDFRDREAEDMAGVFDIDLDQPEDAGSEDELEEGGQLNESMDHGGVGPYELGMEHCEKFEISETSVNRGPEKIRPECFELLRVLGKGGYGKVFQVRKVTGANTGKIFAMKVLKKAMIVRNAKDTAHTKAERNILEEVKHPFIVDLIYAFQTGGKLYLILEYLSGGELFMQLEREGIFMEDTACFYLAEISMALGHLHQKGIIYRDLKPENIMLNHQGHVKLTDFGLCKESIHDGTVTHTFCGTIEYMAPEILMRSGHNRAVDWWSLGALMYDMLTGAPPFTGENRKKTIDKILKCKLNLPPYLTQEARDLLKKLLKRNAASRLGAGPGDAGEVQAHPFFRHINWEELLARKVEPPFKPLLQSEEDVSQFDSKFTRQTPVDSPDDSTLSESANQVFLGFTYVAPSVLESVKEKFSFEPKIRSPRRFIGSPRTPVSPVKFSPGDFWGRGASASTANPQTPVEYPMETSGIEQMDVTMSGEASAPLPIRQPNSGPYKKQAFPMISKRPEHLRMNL

One assay has as its target T1, Serine/threonine-protein kinase Sgk1 (Homo sapiens) (UniProt O00141).
T1 sequence (whole entry): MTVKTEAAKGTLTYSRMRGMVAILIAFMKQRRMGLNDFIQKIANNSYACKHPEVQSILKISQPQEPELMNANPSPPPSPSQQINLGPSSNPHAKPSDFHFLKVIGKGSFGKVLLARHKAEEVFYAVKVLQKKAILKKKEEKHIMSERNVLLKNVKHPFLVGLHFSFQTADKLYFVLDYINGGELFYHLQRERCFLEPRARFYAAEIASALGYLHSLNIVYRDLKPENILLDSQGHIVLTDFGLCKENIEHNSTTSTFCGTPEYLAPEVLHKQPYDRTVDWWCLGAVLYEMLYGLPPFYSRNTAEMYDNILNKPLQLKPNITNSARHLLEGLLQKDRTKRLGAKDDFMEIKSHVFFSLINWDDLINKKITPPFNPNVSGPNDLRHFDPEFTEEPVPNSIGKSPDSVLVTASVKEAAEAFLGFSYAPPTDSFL
Description: Inhibition of SGK1 at 33 uM.
Broadly, the inhibition is the change of the read-out against control, counted positive when it falls. Higher therefore signals a strong effect. The compound `O=C(O)c1cc(/N=N/c2ccc(S(=O)(=O)Nc3ccccn3)cc2)ccc1O` returned an inhibition of 70%.

Turning to `Nc1nc(N)c2nc(-c3ccccc3)c(N)nc2n1`, the inhibition was 94%.

For another assay, the target named is T2, Serine/threonine-protein kinase PAK 1 (Homo sapiens, UniProt Q13153). The experiment in a line: Inhibition of PAK1.
T2 sequence (Q13153 whole entry): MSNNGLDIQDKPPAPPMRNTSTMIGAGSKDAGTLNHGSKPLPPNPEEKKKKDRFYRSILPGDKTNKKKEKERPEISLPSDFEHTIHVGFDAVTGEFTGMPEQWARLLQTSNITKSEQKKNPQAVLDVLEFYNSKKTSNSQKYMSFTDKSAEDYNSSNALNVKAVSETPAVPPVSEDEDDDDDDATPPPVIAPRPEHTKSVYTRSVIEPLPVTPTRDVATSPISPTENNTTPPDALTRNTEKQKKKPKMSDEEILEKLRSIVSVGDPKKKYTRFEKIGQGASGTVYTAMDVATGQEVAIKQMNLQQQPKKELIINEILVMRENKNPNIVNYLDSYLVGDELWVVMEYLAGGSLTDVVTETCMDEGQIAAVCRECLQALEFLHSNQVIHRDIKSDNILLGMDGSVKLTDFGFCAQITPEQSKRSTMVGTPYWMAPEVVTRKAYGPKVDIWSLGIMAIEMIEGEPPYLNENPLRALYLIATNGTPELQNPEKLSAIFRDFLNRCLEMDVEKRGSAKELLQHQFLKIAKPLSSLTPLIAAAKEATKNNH
Usually IC50 stands for the concentration that gives 50% inhibition. Higher therefore signals weaker potency in that assay. Regarding `c1nc(N2CCOCC2)c2nc[nH]c2n1`, the IC50 is 18 µM.

In the case of `CCCCCSc1ncnc2nc[nH]c12`, the IC50 was 38 µM.

As to `c1nc(NC2CCCC2)c2nc[nH]c2n1`, the IC50 worked out at 18 µM.

For `CC(Sc1ncnc2nc[nH]c12)c1ccccc1Cl` (configuration not stated), the IC50 came out at 23 µM.

The compound `CC1CC(Nc2ncnc3nc[nH]c23)CC(C)(C)C1` (configuration not stated) returned an IC50 of 23 µM.

`c1nc2nc(NC3CCCCC3)ncc2[nH]1` had an IC50 of 31 µM.

Another assay addresses Ribosomal protein S6 kinase beta-1 (Homo sapiens) (UniProt P23443). The experiment in a line: Inhibition of p70S6K at 33 uM.
Turning to `COc1c2occc2cc2ccc(=O)oc12`, the inhibition is 64%.

With `Nc1nc(N)c2nc(-c3ccccc3)c(N)nc2n1`, the inhibition came to 95%.

For a further assay, the target named is T2, Serine/threonine-protein kinase PAK 1. Description: Inhibition of PAK1 at 31 uM.
Consider `Nc1nc(N)c2nc(-c3ccccc3)c(N)nc2n1`, for which the inhibition was 100%.

As for `Nc1nc2[nH]cnc2c(=S)[nH]1`, the inhibition is 31%.
